From patent publication US20260193293A1, “PEPTIDES CAPABLE OF INHIBITING PROTEIN-PROTEIN INTERACTIONS AT GABAB1A SUBUNIT AND USES THEREOF” (UNIVERSITY OF COPENHAGEN, priority 2022, published 2026)
Read-outs that look alike come from different tables or passages of the source. Values belong to the compound of their own block, whether it stands above or below them. Non-standard residues stand in square brackets, D forms with d. Residues, ends and D or L forms follow the SMILES beside them. *: point of attachment. NMeW = CN[C@@H](Cc1c[nH]c2ccccc12)C(=O)O; 2Nal = N[C@@H](Cc1ccc2ccccc2c1)C(=O)O; NMeI = CC[C@H](C)[C@H](NC)C(=O)O; NMeE = CN[C@@H](CCC(=O)O)C(=O)O; NMeA = CN[C@@H](C)C(=O)O; Bn = c1ccc(C*)cc1

Target: Sushi domains (SD1/2) protein
Assay: Fluorescence polarization (FP) competition assay with AJAP-1probe, calculated Ki
Format: binding
Procedure, shortened: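 Competition against 25 nM TAMRA-labelled peptide probe binding SD1/2, in PBS pH 7.4 with 1% BSA at rt, read at 530/580 nm. IC50 from sigmoidal dose-response fits, at least triplicate; Ki calculated from IC50 using probe Kd from saturation binding.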

[1] = Table 11, deep mutational scanning validation variants of AJAP-1WT, read-out: Ki (nM) mean ± SEM
[2] = Table 7, Ala-, D-amino acids and N-methylation scans of APPWT, read-out: Ki (nM) mean ± SEM
[3] = Table 4, truncation and elongation scans of APP epitope, read-out: Ki (nM) mean ± SEM
[4] = Table 3, SPOT hit validation and previously reported peptides, read-out: Ki (nM) mean ± SEM

Ki (Table 14, CPPs tagged peptides, read-out: Ki (nM) mean ± SEM): 143000 ± 2500 nM
Compound: CC[C@H](C)[C@H](NC(=O)[C@H](CC(=O)O)NC(=O)[C@H](CC(=O)O)NC(=O)[C@H](Cc1ccc(O)cc1)NC(=O)[C@H](CC(=O)O)NC(=O)[C@H](CC(=O)O)NC(=O)[C@H](CO)NC(=O)[C@H](CC(=O)O)NC(=O)[C@H](CCC(=O)O)NC(=O)[C@H](Cc1ccc2ccccc2c1)NC(=O)[C@H](CCCNC(=N)N)NC(=O)[C@H](CCCNC(=N)N)NC(=O)[C@H](CCCNC(=N)N)NC(=O)[C@H](CCCNC(=N)N)NC(C)=O)C(=O)N[C@@H](CC(=O)O)C(=O)N[C@@H](CC(=O)O)C(=O)N[C@@H](CC(=O)O)C(=O)N[C@@H](Cc1c[nH]c2ccccc12)C(N)=O [reference compound] (Ac-RRRR[2Nal]EDSDDYDDIDDDW-NH2)

Ki [1]: 39 ± 1 nM
Compound: CC[C@H](C)[C@H](NC(=O)[C@H](Cc1ccccc1)NC(=O)[C@H](CCC(=O)O)NC(=O)[C@@H](NC(=O)[C@H](CCC(=O)O)NC(C)=O)[C@@H](C)O)C(=O)N[C@@H](C)C(=O)N[C@@H](Cc1c[nH]c2ccccc12)C(=O)NCC(=O)N1CCC[C@H]1C(=O)N[C@H](C(=O)NCC(=O)N[C@@H](CC(=O)O)C(=O)N[C@@H](CC(N)=O)C(=O)N[C@@H](CC(=O)O)C(N)=O)[C@@H](C)O

Ki (Table 16, ncAAs incorporated peptides, read-out: Ki (nM) mean ± SEM): 28 ± 1 nM
Ki (purified peptides, read-out: Ki): 27.1 nM
fold increased affinity compared to Asp207Trp (relative to Asp207Trp mutant of APPWT): 4 fold
Compound: CC(=O)N[C@@H](CCC(=O)O)C(=O)N[C@@H](CC(=O)O)C(=O)N[C@@H](CC(=O)O)C(=O)N[C@@H](CO)C(=O)N[C@@H](Cc1ccc(OCc2ccccc2)cc1)C(=O)N[C@H](C(=O)N[C@@H](Cc1c[nH]c2ccccc12)C(=O)N[C@@H](Cc1c[nH]c2ccccc12)C(=O)NCC(=O)NCC(=O)N[C@@H](C)C(=O)N[C@@H](CC(=O)O)C(=O)N[C@H](C(=O)N[C@@H](CC(=O)O)C(N)=O)[C@@H](C)O)C(C)C (Ac-EDDSY(Bn)VWWGGADTD-NH2)

Ki [1]: 28 ± 1 nM
Compound: CC[C@H](C)[C@H](NC(=O)[C@H](Cc1ccccc1)NC(=O)[C@H](CCC(=O)O)NC(=O)[C@@H](NC(=O)[C@H](CCC(=O)O)NC(C)=O)C(C)C)C(=O)N[C@@H](C)C(=O)N[C@@H](Cc1c[nH]c2ccccc12)C(=O)NCC(=O)N1CCC[C@H]1C(=O)N[C@H](C(=O)NCC(=O)N[C@@H](CC(=O)O)C(=O)N[C@@H](CCC(=O)O)C(=O)N[C@@H](CC(=O)O)C(N)=O)[C@@H](C)O [EVEFIAWGPTGDED] (Ac-EVEFIAWGPTGDED-NH2)

Ki [2]: 670 ± 6 nM
Compound: CC(=O)N(C)[C@@H](CCC(=O)O)C(=O)N[C@@H](CC(=O)O)C(=O)N[C@@H](CC(=O)O)C(=O)N[C@@H](CO)C(=O)N[C@@H](CC(=O)O)C(=O)N[C@H](C(=O)N[C@@H](Cc1c[nH]c2ccccc12)C(=O)N[C@@H](Cc1c[nH]c2ccccc12)C(=O)NCC(=O)NCC(=O)N[C@@H](C)C(=O)N[C@@H](CC(=O)O)C(=O)N[C@H](C(=O)N[C@@H](CC(=O)O)C(N)=O)[C@@H](C)O)C(C)C (Ac-[NMeE]DDSDVWWGGADTD-NH2)

Ki [3]: 341 ± 10 nM
Compound: CC(=O)N[C@@H](CCC(=O)O)C(=O)N[C@@H](CCC(=O)O)C(=O)N[C@@H](CC(=O)O)C(=O)N[C@@H](CC(=O)O)C(=O)N[C@@H](CO)C(=O)N[C@@H](CC(=O)O)C(=O)N[C@H](C(=O)N[C@@H](Cc1c[nH]c2ccccc12)C(=O)N[C@@H](Cc1c[nH]c2ccccc12)C(=O)NCC(=O)NCC(=O)N[C@@H](C)C(=O)N[C@@H](CC(=O)O)C(=O)N[C@H](C(=O)N[C@@H](CC(=O)O)C(N)=O)[C@@H](C)O)C(C)C (Ac-EEDDSDVWWGGADTD-NH2)

Ki [4]: 637 ± 45 nM
Compound: CC[C@H](C)[C@H](NC(=O)[C@H](C)NC(C)=O)C(=O)N[C@H](C(=O)N[C@@H](Cc1c[nH]c2ccccc12)C(=O)NCC(=O)N1CCC[C@H]1C(=O)N[C@H](C(=O)N[C@H](C(=O)N[C@@H](CO)C(=O)N[C@@H](CCCNC(=N)N)C(=O)N[C@@H](CCC(=O)O)C(=O)N[C@@H](CC(=O)O)C(=O)NCC(=O)NCC(=O)N[C@@H](CC(=O)O)C(N)=O)C(C)C)[C@@H](C)O)C(C)C (Ac-AIVWGPTVSREDGGD-NH2)

Ki [1]: 43 ± 2 nM
Compound: CC[C@H](C)[C@H](NC(=O)[C@H](Cc1ccccc1)NC(=O)[C@H](CCC(=O)O)NC(=O)[C@@H](NC(=O)[C@H](CCC(=O)O)NC(C)=O)[C@@H](C)O)C(=O)N[C@@H](C)C(=O)N[C@@H](Cc1c[nH]c2ccccc12)C(=O)NCC(=O)N1CCC[C@H]1C(=O)N[C@H](C(=O)NCC(=O)N[C@@H](CC(=O)O)C(=O)N[C@@H](CCC(=O)O)C(=O)N[C@@H](CC(N)=O)C(N)=O)[C@@H](C)O (Ac-ETEFIAWGPTGDEN-NH2)

Ki [1]: 41 ± 1 nM
Compound: CC[C@H](C)[C@H](NC(=O)[C@H](Cc1ccccc1)NC(=O)[C@H](CCC(=O)O)NC(=O)[C@@H](NC(=O)[C@H](CCC(=O)O)NC(C)=O)[C@@H](C)O)C(=O)N[C@@H](C)C(=O)N[C@@H](Cc1c[nH]c2ccccc12)C(=O)NCC(=O)N1CCC[C@H]1C(=O)N[C@H](C(=O)NCC(=O)N[C@@H](Cc1ccc(O)cc1)C(=O)N[C@@H](CCC(=O)O)C(=O)N[C@@H](CC(=O)O)C(N)=O)[C@@H](C)O [ETEFIAWGPTGYED] (Ac-ETEFIAWGPTGYED-NH2)

Ki [4]: 39 ± 1 nM
Compound: CC[C@H](C)[C@H](NC(=O)[C@H](Cc1ccccc1)NC(=O)[C@H](CCC(=O)O)NC(=O)[C@@H](NC(=O)[C@H](CCC(=O)O)NC(C)=O)[C@@H](C)O)C(=O)N[C@@H](C)C(=O)N[C@@H](Cc1c[nH]c2ccccc12)C(=O)NCC(=O)N1CCC[C@H]1C(=O)N[C@H](C(=O)NCC(=O)N[C@@H](CC(=O)O)C(=O)N[C@@H](CCC(=O)O)C(=O)N[C@@H](CC(=O)O)C(=O)N[C@@H](C)C(N)=O)[C@@H](C)O

Ki [3]: 500 ± 16 nM
Compound: CC(=O)N[C@@H](C)C(=O)N[C@@H](CC(=O)O)C(=O)N[C@@H](C)C(=O)N[C@@H](CCC(=O)O)C(=O)N[C@@H](CCC(=O)O)C(=O)N[C@@H](CC(=O)O)C(=O)N[C@@H](CC(=O)O)C(=O)N[C@@H](CO)C(=O)N[C@@H](CC(=O)O)C(=O)N[C@H](C(=O)N[C@@H](Cc1c[nH]c2ccccc12)C(=O)N[C@@H](Cc1c[nH]c2ccccc12)C(=O)NCC(=O)NCC(=O)N[C@@H](C)C(=O)N[C@@H](CC(=O)O)C(=O)N[C@H](C(=O)N[C@@H](CC(=O)O)C(=O)N[C@@H](Cc1ccc(O)cc1)C(=O)N[C@@H](C)C(=O)N[C@@H](CC(=O)O)C(N)=O)[C@@H](C)O)C(C)C (Ac-ADAEEDDSDVWWGGADTDYAD-NH2)

Ki [3]: 281 ± 4 nM
Compound: CC(=O)N[C@@H](CCC(=O)O)C(=O)N[C@@H](CC(=O)O)C(=O)N[C@@H](CC(=O)O)C(=O)N[C@@H](CO)C(=O)N[C@@H](CC(=O)O)C(=O)N[C@H](C(=O)N[C@@H](Cc1c[nH]c2ccccc12)C(=O)N[C@@H](Cc1c[nH]c2ccccc12)C(=O)NCC(=O)NCC(=O)N[C@@H](C)C(=O)N[C@@H](CC(=O)O)C(=O)N[C@H](C(=O)N[C@@H](CC(=O)O)C(=O)N[C@@H](Cc1ccc(O)cc1)C(=O)N[C@@H](C)C(=O)N[C@@H](CC(=O)O)C(N)=O)[C@@H](C)O)C(C)C (Ac-EDDSDVWWGGADTDYAD-NH2)

Ki (Table 8, Ala-, D-amino acids and N-methylation scans of AJAP-1WT, read-out: Ki (nM) mean ± SEM): 33 ± 1 nM
Compound: CC[C@H](C)[C@@H](C(=O)N[C@@H](C)C(=O)N[C@@H](Cc1c[nH]c2ccccc12)C(=O)NCC(=O)N1CCC[C@H]1C(=O)N[C@H](C(=O)NCC(=O)N[C@@H](CC(=O)O)C(=O)N[C@@H](CCC(=O)O)C(=O)N[C@@H](CC(=O)O)C(N)=O)[C@@H](C)O)N(C)C(=O)[C@H](Cc1ccccc1)NC(=O)[C@H](CCC(=O)O)NC(=O)[C@@H](NC(=O)[C@H](CCC(=O)O)NC(C)=O)[C@@H](C)O [ETEF(N-Me-I)AWGPTGDED] (Ac-ETEF[NMeI]AWGPTGDED-NH2)

Ki (Table 9, Ala-, D-amino acids and N-methylation scans of PIANPWT, read-out: Ki (nM) mean ± SEM): 1462 ± 14 nM
Compound: CC[C@H](C)[C@H](NC(=O)[C@H](C)NC(=O)[C@H](Cc1c[nH]c2ccccc12)NC(=O)[C@@H]1CCCN1C(C)=O)C(=O)N[C@@H](C)C(=O)N[C@@H](Cc1c[nH]c2ccccc12)C(=O)NCC(=O)N1CCC[C@H]1C(=O)N[C@H](C(=O)N[C@H](C(=O)N[C@@H](CO)C(=O)N[C@@H](CCCNC(=N)N)C(=O)N[C@@H](CCC(=O)O)C(=O)N[C@@H](CC(=O)O)C(N)=O)C(C)C)[C@@H](C)O [PWAIAWGPTVSRED]

Ki (Table 8, in μM, read-out: Ki (nM) mean ± SEM): > 6250 nM
Compound: CC[C@H](C)[C@H](NC(=O)[C@H](Cc1ccccc1)NC(=O)[C@H](CCC(=O)O)NC(=O)[C@@H](NC(=O)[C@H](CCC(=O)O)NC(C)=O)[C@@H](C)O)C(=O)N(C)[C@@H](C)C(=O)N[C@@H](Cc1c[nH]c2ccccc12)C(=O)NCC(=O)N1CCC[C@H]1C(=O)N[C@H](C(=O)NCC(=O)N[C@@H](CC(=O)O)C(=O)N[C@@H](CCC(=O)O)C(=O)N[C@@H](CC(=O)O)C(N)=O)[C@@H](C)O [ETEFI(N-Me-A)WGPTGDED] (Ac-ETEFI[NMeA]WGPTGDED-NH2)

Ki [2]: 1380 ± 16 nM
Compound: CC(=O)N[C@@H](CCC(=O)O)C(=O)N[C@@H](CC(=O)O)C(=O)N[C@@H](CC(=O)O)C(=O)N[C@@H](CO)C(=O)N[C@@H](CC(=O)O)C(=O)N[C@H](C(=O)N[C@@H](Cc1c[nH]c2ccccc12)C(=O)N(C)[C@@H](Cc1c[nH]c2ccccc12)C(=O)NCC(=O)NCC(=O)N[C@@H](C)C(=O)N[C@@H](CC(=O)O)C(=O)N[C@H](C(=O)N[C@@H](CC(=O)O)C(N)=O)[C@@H](C)O)C(C)C [EDDSDVW(N-Me-W)GGADTD] (Ac-EDDSDVW[NMeW]GGADTD-NH2)

Ki (Table 6, elongation and truncation scan of PIANP binding epitope, read-out: Ki (nM) mean ± SEM): 706 ± 16 nM
Compound: CC[C@H](C)[C@H](NC(=O)[C@H](C)NC(=O)[C@H](Cc1c[nH]c2ccccc12)NC(=O)[C@@H]1CCCN1C(C)=O)C(=O)N[C@H](C(=O)N[C@@H](Cc1c[nH]c2ccccc12)C(=O)NCC(=O)N1CCC[C@H]1C(=O)N[C@H](C(=O)N[C@H](C(=O)N[C@@H](CO)C(=O)N[C@@H](CCCNC(=N)N)C(=O)N[C@@H](CCC(=O)O)C(=O)N[C@@H](CC(=O)O)C(=O)NCC(=O)NCC(=O)N[C@@H](CC(=O)O)C(=O)N1CCC[C@H]1C(=O)N[C@@H](CC(N)=O)C(=O)N[C@@H](CO)C(N)=O)C(C)C)[C@@H](C)O)C(C)C (Ac-PWAIVWGPTVSREDGGDPNS-NH2)
